# In ChEMBL document CHEMBL1287647, “Synthesis and characterization of a iodine-125-labeled pyrrolo[1,2-a]thieno[3,2-e]pyrazine and evaluation as a potential 5-HT4R SPECT tracer” (Eur J Med Chem, 2010):
# pKi: −log10 of the molar value.
# What was measured:
# [1] = molecular target: 5-hydroxytryptamine receptor 4 (Cavia porcellus) (UniProt O70528); assay: Displacement of [3H]GR113808 from 5HT4 receptor in guinea pig striatal membranes at 1 uM; assay type: cell membranes; details: Striatum, Membrane
# [2] = molecular target: 5-hydroxytryptamine receptor 4 (Cavia porcellus, UniProt O70528); assay: Displacement of [3H]GR113808 from 5HT4 receptor in guinea pig striatal membranes; assay type: cell membranes, Striatum, Membrane
# Chain of 5-hydroxytryptamine receptor 4 (O70528 whole entry): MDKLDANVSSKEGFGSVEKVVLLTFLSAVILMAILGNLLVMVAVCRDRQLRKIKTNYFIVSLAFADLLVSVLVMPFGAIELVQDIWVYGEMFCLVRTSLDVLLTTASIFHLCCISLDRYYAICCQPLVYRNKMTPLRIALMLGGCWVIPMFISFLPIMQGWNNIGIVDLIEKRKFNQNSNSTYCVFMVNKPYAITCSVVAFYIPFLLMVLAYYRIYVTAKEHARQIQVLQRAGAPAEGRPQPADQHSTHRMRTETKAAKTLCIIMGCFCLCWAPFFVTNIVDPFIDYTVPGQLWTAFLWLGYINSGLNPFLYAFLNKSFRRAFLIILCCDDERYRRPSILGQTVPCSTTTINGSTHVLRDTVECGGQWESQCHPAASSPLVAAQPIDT
# Chain of 5-hydroxytryptamine receptor 4 (Cavia porcellus) (O70528 whole entry): as above
inhibition [1] [%],pKi [2],Structure (SMILES)
85,6.05,C#CCN1CCC(COc2nc3scc(C)c3n3cccc23)CC1
87,6.89,Cc1csc2nc(OCC3CCN(C/C=C/I)CC3)c3cccn3c12
